Measured values: the NIST ThermoML archive (doi:10.1016/j.jct.2016.06.018)

Assay: mn = molality of the nth substance listed, in mol/kg
Conditions: 101 kPa, Liquid, Vibrating tube method

CCCCCCCCCCCC[N+](C)(C)CCOc1ccccc1.[Br-] [Domiphen bromide] + O
mass density [kg/m3]
Conditions	293.15 K	298.15 K	303.15 K	308.15 K
m1 = 0.04	999.65	998.37	996.97	995.39
m1 = 0.08	1000.98	999.84	998.36	996.78
